# According to ChEMBL document CHEMBL1201862, “PubChem BioAssay data set” (2004):
#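 Exposure lasted 48 hours, with cells grown in 96-well plates and compounds tested at five concentrations. Here, GI50 denotes the concentration required for 50% inhibition of growth.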 Active and inactive are the calls of the source. Rule as the data show it: active = GI50 up to about 1.1 µM and inactive = higher.
# Key:
# Assay in all cases: growth of human tumour cells (NCI), 48 h
# 786-0 = system: 786-0
# A498 = system: A498
# A549 = system: A549
# ACHN = system: ACHN
# BT-549 = system: BT-549
# CAKI-1 = system: CAKI-1
# CCRF-CEM = system: CCRF-CEM
# COLO 205 = system: COLO 205
# DU-145 = system: DU-145
# EKVX = system: EKVX
# HCC 2998 = system: HCC 2998
# HCT-116 = system: HCT-116
# HCT-15 = system: HCT-15
# HL-60 = system: HL-60
# HOP-62 = system: HOP-62
# HOP-92 = system: HOP-92
# HT-29 = system: HT-29
# Hs-578T = system: Hs-578T
# IGROV-1 = system: IGROV-1
# K562 = system: K562
# KM12 = system: KM12
# LOX IMVI = system: LOX IMVI
# M14 = system: M14
# MCF7 = system: MCF7
# MDA-MB-231 = system: MDA-MB-231
# MDA-MB-435 = system: MDA-MB-435
# MDA-N = system: MDA-N
# MOLT-4 = system: MOLT-4
# NCI-H226 = system: NCI-H226
# NCI-H23 = system: NCI-H23
# NCI-H460 = system: NCI-H460
# NCI-H522 = system: NCI-H522
# NCI/ADR-RES = system: NCI/ADR-RES
# OVCAR-3 = system: OVCAR-3
# OVCAR-4 = system: OVCAR-4
# OVCAR-5 = system: OVCAR-5
# OVCAR-8 = system: OVCAR-8
# PC-3 = system: PC-3
# RPMI-8226 = system: RPMI-8226
# RXF 393 = system: RXF 393
# SF-268 = system: SF-268
# SF-295 = system: SF-295
# SF-539 = system: SF-539
# SK-MEL-28 = system: SK-MEL-28
# SK-MEL-2 = system: SK-MEL-2
# SK-MEL-5 = system: SK-MEL-5
# SK-OV-3 = system: SK-OV-3
# SN12C = system: SN12C
# SNB-19 = system: SNB-19
# SNB-75 = system: SNB-75
# SR = system: SR
# SW-620 = system: SW-620
# T47D = system: T47D
# TK-10 = system: TK-10
# U-251 = system: U-251
# UACC-257 = system: UACC-257
# UACC-62 = system: UACC-62
# UO-31 = system: UO-31
# Malme-3M = system: Malme-3M
structure (smiles),measurement,setting,value
O=C1C(=O)c2ccccc2C=C1[N+](=O)[O-],GI50,786-0,45.1 µM (inactive)
same,GI50,A498,> 100 µM (inactive)
same,GI50,A549,> 100 µM (inactive)
same,GI50,ACHN,> 100 µM (inactive)
same,GI50,BT-549,> 100 µM (inactive)
same,GI50,CAKI-1,87.9 µM (inactive)
same,GI50,CCRF-CEM,27.9 µM (inactive)
same,GI50,COLO 205,> 100 µM (inactive)
same,GI50,DU-145,49 µM (inactive)
same,GI50,EKVX,19.3 µM (inactive)
same,GI50,HCC 2998,80.9 µM (inactive)
same,GI50,HCT-116,26.2 µM (inactive)
same,GI50,HCT-15,32.7 µM
same,GI50,HL-60,22.7 µM (inactive)
same,GI50,HOP-62,> 100 µM (inactive)
same,GI50,HOP-92,55.8 µM (inactive)
same,GI50,HT-29,> 100 µM (inactive)
same,GI50,Hs-578T,57.1 µM (inactive)
same,GI50,IGROV-1,13.8 µM (inactive)
same,GI50,K562,53.5 µM (inactive)
same,GI50,KM12,70.3 µM (inactive)
same,GI50,LOX IMVI,25.8 µM (inactive)
same,GI50,M14,71.1 µM (inactive)
same,GI50,MCF7,22.9 µM (inactive)
same,GI50,MDA-MB-231,18.1 µM (inactive)
same,GI50,MDA-MB-435,16.8 µM (inactive)
same,GI50,MDA-N,19.7 µM (inactive)
same,GI50,MOLT-4,29.3 µM (inactive)
same,GI50,NCI-H226,> 100 µM (inactive)
same,GI50,NCI-H23,34.2 µM (inactive)
same,GI50,NCI-H460,30.2 µM (inactive)
same,GI50,NCI-H522,34.9 µM (inactive)
same,GI50,NCI/ADR-RES,23 µM (inactive)
same,GI50,OVCAR-3,23.4 µM (inactive)
same,GI50,OVCAR-4,31.3 µM (inactive)
same,GI50,OVCAR-5,> 100 µM (inactive)
same,GI50,OVCAR-8,33.7 µM (inactive)
same,GI50,PC-3,48.2 µM (inactive)
same,GI50,RPMI-8226,31 µM (inactive)
same,GI50,RXF 393,24.4 µM (inactive)
same,GI50,SF-268,38.3 µM (inactive)
same,GI50,SF-295,97.3 µM (inactive)
same,GI50,SF-539,43.1 µM (inactive)
same,GI50,SK-MEL-28,> 100 µM (inactive)
same,GI50,SK-MEL-2,28.2 µM (inactive)
same,GI50,SK-MEL-5,17 µM (inactive)
same,GI50,SK-OV-3,> 100 µM (inactive)
same,GI50,SN12C,29.4 µM (inactive)
same,GI50,SNB-19,> 100 µM (inactive)
same,GI50,SNB-75,> 100 µM (inactive)
same,GI50,SR,29.4 µM (inactive)
same,GI50,SW-620,32.9 µM (inactive)
same,GI50,T47D,32.8 µM (inactive)
same,GI50,TK-10,> 100 µM (inactive)
same,GI50,U-251,40.1 µM (inactive)
same,GI50,UACC-257,25.2 µM (inactive)
same,GI50,UACC-62,27.7 µM (inactive)
same,GI50,UO-31,> 100 µM (inactive)
Cc1c(F)c(N)c2c(=O)cc(-c3ccc(N)c(F)c3)oc2c1F [AMINOFLAVONE],GI50,786-0,14.2 µM (inactive)
same,GI50,A498,0.366 µM (active)
same,GI50,A549,2.09 µM (inactive)
same,GI50,ACHN,15.7 µM (inactive)
same,GI50,BT-549,17.5 µM (inactive)
same,GI50,CAKI-1,< 0.0131 µM (active)
same,GI50,CCRF-CEM,28 µM (inactive)
same,GI50,COLO 205,32.5 µM (inactive)
same,GI50,DU-145,26.3 µM (inactive)
same,GI50,EKVX,13.7 µM (inactive)
same,GI50,HCC 2998,19 µM (inactive)
same,GI50,HCT-116,12.1 µM (inactive)
same,GI50,HCT-15,33.3 µM
same,GI50,HL-60,44.8 µM (inactive)
same,GI50,HOP-62,12.7 µM (inactive)
same,GI50,HOP-92,23 µM (inactive)
same,GI50,HT-29,33.7 µM (inactive)
same,GI50,Hs-578T,38.1 µM (inactive)
same,GI50,IGROV-1,0.0723 µM (active)
same,GI50,K562,0.279 µM (active)
same,GI50,KM12,21.9 µM (inactive)
same,GI50,LOX IMVI,21.3 µM (inactive)
same,GI50,M14,57.3 µM (inactive)
same,GI50,MCF7,0.0156 µM (active)
same,GI50,MDA-MB-231,18.7 µM (inactive)
same,GI50,MDA-MB-435,43.5 µM (inactive)
same,GI50,MDA-N,29.4 µM (inactive)
same,GI50,MOLT-4,46.9 µM (inactive)
same,GI50,Malme-3M,33.5 µM (inactive)
same,GI50,NCI-H226,3.52 µM (inactive)
same,GI50,NCI-H23,19.6 µM (inactive)
same,GI50,NCI-H460,0.199 µM (active)
same,GI50,NCI-H522,9.71 µM (inactive)
same,GI50,NCI/ADR-RES,13.9 µM (inactive)
same,GI50,OVCAR-3,0.458 µM (active)
same,GI50,OVCAR-4,18.8 µM (inactive)
same,GI50,OVCAR-5,0.15 µM (active)
same,GI50,OVCAR-8,19.6 µM (inactive)
same,GI50,PC-3,20.7 µM (inactive)
same,GI50,RPMI-8226,14.9 µM (inactive)
same,GI50,RXF 393,17 µM (inactive)
same,GI50,SF-268,23.1 µM (inactive)
same,GI50,SF-295,15.6 µM (inactive)
same,GI50,SF-539,14.9 µM (inactive)
same,GI50,SK-MEL-28,45.1 µM (inactive)
same,GI50,SK-MEL-2,40.6 µM (inactive)
same,GI50,SK-MEL-5,20.4 µM (inactive)
same,GI50,SK-OV-3,17.6 µM (inactive)
same,GI50,SN12C,17.1 µM (inactive)
same,GI50,SNB-19,21 µM (inactive)
same,GI50,SNB-75,26.7 µM (inactive)
same,GI50,SR,18.7 µM (inactive)
same,GI50,SW-620,0.0305 µM (active)
same,GI50,T47D,0.313 µM (active)
same,GI50,TK-10,0.258 µM (active)
same,GI50,U-251,4.2 µM (inactive)
same,GI50,UACC-257,0.298 µM (active)
same,GI50,UACC-62,4.73 µM (inactive)
same,GI50,UO-31,5.33 µM (inactive)
